Reference: EP0509470A2, “Therapeutical compositions having anti-HIV activity consisting of 2',3'-didesoxyadenosine and substances inhibiting adenosine deaminase” (REPLA CHEMICAL LTD., priority 1991, dated 1992)

What was measured:
[1] = Cytotoxicity evaluation (cell number in Coulter after 96 hours); format: cell-based; conditions: human
Experimental: (§1) The cellular lines utilized in this study were: H9, T lymphocytes, CD4+, permissive for the HIV replication but partially resistant to its cytopathic effect; • H9/IIIB, H9 lymphocytes chronically infected by HTLV/IIIB virus; • MT4 and C8166, T lymphocytes lines, CD4+ permissive for HIV replication. In C8166 the virus induces a cytopathic effect which results in the formation of syncytia easily visible at the optical microscope.
(§2) All the lymphoid lines were cultured in RPMI 1640 containing 10 % of non decomplemented fetal calf serum (FCS), penicillin 100U/mL and streptomycin 100 µg/mL and incubated at 37 °C in 5% CO₂.
(§3) For the cytotoxicity evaluation, the cells were resuspended in a culture medium at a density of 1 x 10⁵/mL, were incubated in the absence or in the presence of various concentration of the compounds to be studied and their number was determined in Coulter after 96 hours of incubation at 37 °C.

[2] = tested on: HIV-1; assay: Inhibition of infecting HIV production in MT4 cells (end point titration); format: cell-based; conditions: for EC90: compound alone, Table 2, read-out: ED90 (the source's name); for lowest concentration enhancing ddAdo anti-HIV activity, relative to its MNTD: MT4
Experimental: as §1, §2
(§4) HIV virus was obtained by H9/IIIB cells surnatant taken at the end of their exponential growth.
(§5) The titre of several stock preparations was comprised between 2 and 5 x 10⁵ Cell Culture Infection Dose 50 (CCID50)/mL.
(§6) For the evaluation of the anti-HIV activity the inhibition of infecting HIV production was determined as follows.
(§7) C8166 or MT4 cells sown at a density of 1 x 10⁶ cells/ml, were infected with a multiplicity of infection (m.o.i.) comprised between 0.05 and 0.02 CCID50/cell. After two hours of incubation at 37 °C and subsequent removal of the inoculum, the cells were washed three times and resuspended at a density of 1 x 10⁵ cells/ml. in the absence or in the presence of the compounds to be investigated.
(§8) After 4 days of incubation at 37 °C the presence of syncytia was evaluated at the optical microscope and the quantity of infecting HIV present in the surnatant of the cultures was determined by end point titration.
(§9) HIV titration was carried out in C8166 cells sown at a density of 1 x 10⁵ cells/mL/well, by the limit dilution method (dilution ratio 1:2, every dilution being sown in quadruplicate).
(§10) After four days of incubation, the syncytia presence was evaluated at the microscope and the viral titre was calculated by the Reed and Muench method.

[3] = tested on: HIV-1; assay: Inhibition of infecting HIV production in C8166 cells (end point titration); format: cell-based; conditions: C8166 cells; for EC90: compound alone, Table 2, read-out: ED90 (the source's name)
Experimental: as §1, §2, §4, §5, §6, §7, §8, §9, §10

[4] = tested on: C8166 cells; assay: Cytotoxicity evaluation (cell number in Coulter after 96 hours); format: cell-based; conditions: C8166 cells; concentrations up to 500 µM
Experimental: as §1, §2, §3

[5] = tested on: MT4 cells; assay: as above; format: cell-based; conditions: MT4 cells; concentrations up to 500 µM
Experimental: as §1, §2, §3

[6] = tested on: human T lymphocytes; conditions: G. Ahluwalia et al. 1987; cited from earlier work

| SMILES | CC50 at 96 h ([1]; mt4 cells) [µM] | MNTC at 96 h ([1]; mt4 cells, MNTD) [µM] | EC90 ([2]; MT4 cells) [µM] | anti-HIV-1 activity ([3]; concentrations up to 500 µM) | toxicity [4] | toxicity [5] | anti-HIV-1 activity ([2]; MT4 cells, concentrations up to 500 µM) | lowest concentration enhancing ddAdo anti-HIV activity, relative to its MNTD ([2]; dCF with ddAdo) | EC90 [3] [µM] | CC50 at 96 h ([1]; c8166 cells) [µM] | MNTC at 96 h ([1]; c8166 cells, MNTD) [µM] | MCC at 96 h ([1]; cell line not specified, read-out: cytotoxic concentration) [µM] | lowest concentration enhancing ddAdo anti-HIV activity, relative to its MNTD ([2]; CF with ddAdo) | entry into the cells, less efficient than that of ddAdo [6] | MNTC at 96 h ([1]; c8166 cells, maxima non cytotoxic doses (MNTD)) [µM] | MNTC at 96 h ([1]; mt4 cells, maxima non cytotoxic doses (MNTD)) [µM] |
| --- | --- | --- | --- | --- | --- | --- | --- | --- | --- | --- | --- | --- | --- | --- | --- | --- |
| CCCCCC[C@H]([C@H](C)O)n1cnc2c(N)cccc21 (relative stereo) [1,3-dideaza-EHNA] | 15 | 5 | > 5 |  |  |  |  |  |  |  |  |  |  |  |  |  |
| OC[C@H]1O[C@@H](n2cnc3c2NC=NC[C@H]3O)C[C@@H]1O [dCF, desoxycoformycin] |  |  |  | without any anti-HIV-1 activity | non toxic | non toxic | without any anti-HIV-1 activity | more than 10,000 times lower |  |  |  |  |  |  |  |  |
| OC[C@H]1O[C@@H](n2cnc3c2N=CNC[C@H]3O)[C@H](O)[C@@H]1O [CF, coformycin] | > 250 | > 250 | > 250 |  |  |  |  |  | > 250 | > 250 | > 250 | 250 | more than 12500 times lower |  |  |  |
| OC[C@@H]1CC[C@H](n2cnc3c(O)ncnc32)O1 [ddIno, 2',3'-didesoxy-inosine, reference compound] | > 1000 | > 1000 | 11 |  |  |  |  |  | 28 | > 1000 | > 1000 |  |  | 4-6 time | ≥ 1000 | ≥ 1000 |
